Drawing on PubChem BioAssay (NCI), this text covers GI50 and TGI for eight compounds.

Some test systems named below: A498 renal; BT-549 breast; EKVX NSCLC; HCT-15 colon; MCF7 breast; SK-OV-3 ovarian; SR leukemia; SW-620 colon; UACC-257 melanoma; SK-MEL-5 melanoma.
What all share (assay): NCI-60 cell line screen, 48 h

“And” between values parts separate entries of the source, which are not always exact repeats. Equal entries are not always repeated.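 These data come from cells grown in 96-well plates and exposed to compound for 48 hours at five concentrations. GI50: concentration for 50% inhibition of growth. TGI marks complete inhibition of growth.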 Where only a bound is given, the exact number is not on record here.

As for `COc1ccc(OCC(O)CN2CCN(c3ccc(Cl)cc3)CC2)cc1` (centres undefined), the GI50 was over 100 µM in the assay with A498 renal; over 100 µM with BT-549 breast; 9.82 µM in the assay with EKVX NSCLC; over 100 µM in the assay with HCT-15 colon; over 100 µM with MCF7 breast; over 100 µM in the assay with SK-OV-3 ovarian. Also, the GI50 with SR leukemia, in the assay on SW-620 colon and in the assay with UACC-257 melanoma was over 100 µM in each case. The TGI in the assay with A498 renal, in the assay with BT-549 breast, in the assay on EKVX NSCLC, with HCT-15 colon, with MCF7 breast and with SK-OV-3 ovarian was over 100 µM each time. The TGI in the assay on SR leukemia, with SW-620 colon and with UACC-257 melanoma was over 100 µM each time.

With `Cc1ccc(S(=O)(=O)N2CCC(C(=O)O)(c3ccccc3)CC2)cc1`, the TGI in the assay on A498 renal, in the assay with BT-549 breast, with EKVX NSCLC, with HCT-15 colon, with MCF7 breast and in the assay with SK-MEL-5 melanoma was over 100 µM each time. For the same compound, the TGI in the assay on SK-OV-3 ovarian, with SR leukemia, in the assay with SW-620 colon and in the assay on UACC-257 melanoma was over 100 µM throughout.

As to `N/C(=N\C(N)=N\c1nc2ccccc2s1)c1cnccn1`, the GI50 in the assay with A498 renal is 1.45 µM; with BT-549 breast it was 3.97 µM; in the assay with EKVX NSCLC, 4.08 µM; with HCT-15 colon, 3.12 µM; in the assay on MCF7 breast, 3.16 µM; with SK-MEL-5 melanoma it was 2.29 µM. Moreover, the GI50 with SK-OV-3 ovarian was 1.84 µM; with SR leukemia, 4.32 µM; with SW-620 colon it was 3.68 µM; in the assay on UACC-257 melanoma, 2.13 µM. For the same compound, the TGI in the assay with A498 renal was 3.89 µM; in the assay on BT-549 breast, 96 µM; in the assay with EKVX NSCLC it was over 100 µM; in the assay on HCT-15 colon, over 100 µM; with MCF7 breast it was over 100 µM; in the assay on SK-MEL-5 melanoma it was 5.89 µM. Further, the TGI with SK-OV-3 ovarian was 3.83 µM; with SR leukemia, over 100 µM; in the assay on SW-620 colon, over 100 µM; in the assay with UACC-257 melanoma, 5.26 µM.

Consider `C#CC#CC#CC#CC#CC#CC#CC#CC[C@@H]1OC[C@@H](COC(=O)O[C@@H](C(=O)O[C@H]2C[C@@]3(O)[C@@H](OC(=O)c4ccccc4)[C@@H]4[C@]5(OC(C)=O)CO[C@@H]5C[C@H](O)[C@@]4(C)C(=O)[C@H](OC(C)=O)C(=C2C)C3(C)C)[C@@H](NC(=O)c2ccccc2)c2ccccc2)O1`, for which the GI50 in the assay with A498 renal was 0.332 µM; in the assay on BT-549 breast, 0.639 µM; in the assay on EKVX NSCLC it was 2.25 µM; with HCT-15 colon, 1.11 µM; in the assay with MCF7 breast, 0.0872 µM; with SK-MEL-5 melanoma, 0.83 µM. In addition, the GI50 was 0.897 µM in the assay with SK-OV-3 ovarian, 0.16 µM in the assay with SR leukemia, 0.188 µM in the assay on SW-620 colon and over 15.7 µM in the assay with UACC-257 melanoma. For the same compound, the TGI is over 6.73 µM with A498 renal; over 33.3 µM in the assay with BT-549 breast; over 33.3 µM with EKVX NSCLC; over 33.3 µM in the assay on HCT-15 colon; over 33.3 µM in the assay with MCF7 breast; over 9.15 µM in the assay on SK-MEL-5 melanoma. Further, the TGI in the assay on SK-OV-3 ovarian, in the assay with SR leukemia, in the assay with SW-620 colon and in the assay on UACC-257 melanoma was over 33.3 µM each time.

As to `Nc1nc(=S)c2[nH]cnc2[nH]1`, the TGI with A498 renal was > 23.8 µM and 93.7 µM and 12.6 µM; in the assay on EKVX NSCLC, > 100 µM and 143 µM and > 250 µM; in the assay on HCT-15 colon, > 100 µM and 51.6 µM and 38.9 µM; with SK-OV-3 ovarian it was 8.82 µM and 17.5 µM and > 86 µM; in the assay with SR leukemia it was > 24.7 µM and 15.7 µM; with UACC-257 melanoma it was > 70.3 µM and 110 µM and > 250 µM. Besides, the GI50 with BT-549 breast is 0.716 µM and 1.4 µM and 1.85 µM; in the assay on HCT-15 colon, 0.515 µM and 2.51 µM and 1.7 µM; in the assay on MCF7 breast, 0.325 µM and 0.547 µM and 1.02 µM; in the assay with SK-MEL-5 melanoma, 1.59 µM and 2.68 µM and 6.68 µM; in the assay on SK-OV-3 ovarian it was 0.293 µM and 0.784 µM; in the assay on SR leukemia, 0.0786 µM and 0.588 µM. The GI50 in the assay on SW-620 colon was 0.564 µM and 3.6 µM and 1.18 µM; in the assay with UACC-257 melanoma, 0.708 µM and 5.94 µM.

Take `COC(=O)c1ccc2[nH]c(O)c(C(=Nc3ccc(N(C)C(=O)CN4CCN(C)CC4)cc3)c3ccccc3)c2c1`: the GI50 is 1.91 µM with A498 renal; 1.65 µM in the assay with BT-549 breast; 2.98 µM in the assay with EKVX NSCLC; 1.77 µM in the assay on HCT-15 colon; 0.603 µM in the assay with MCF7 breast; 1.35 µM in the assay with SK-MEL-5 melanoma. For the same compound, the GI50 was 0.444 µM in the assay on SK-OV-3 ovarian, 0.224 µM in the assay on SR leukemia, 0.795 µM in the assay with SW-620 colon and 2.24 µM in the assay on UACC-257 melanoma. In addition, the TGI turned out to be 5.39 µM in the assay on A498 renal; 3.28 µM in the assay on BT-549 breast; 16.2 µM with EKVX NSCLC; 8.4 µM with HCT-15 colon; 2.42 µM in the assay with MCF7 breast; 2.69 µM in the assay on SK-MEL-5 melanoma. Also, the TGI with SK-OV-3 ovarian was determined as 5 µM; in the assay with SR leukemia it was 10.2 µM; in the assay with SW-620 colon, 4.27 µM; in the assay on UACC-257 melanoma it was 5 µM.

For the compound `CCCCCCCCCCCCOC1C(C(CC(=O)N2CCN(Cc3ccc4c(c3)OCO4)CC2)NS(=O)(=O)c2cc(Cl)cc(Cl)c2)OC2OC(C)(C)OC21` (centres undefined), the GI50 in the assay on A498 renal was 43.4 µM; with BT-549 breast, 27.9 µM; in the assay on EKVX NSCLC, 19.1 µM; in the assay on HCT-15 colon it was over 100 µM; in the assay with MCF7 breast, 4.45 µM; in the assay on SK-MEL-5 melanoma, 39.3 µM. For the same compound, the GI50 in the assay on SK-OV-3 ovarian was over 100 µM; in the assay with SR leukemia, 3.85 µM; with SW-620 colon it was 16.4 µM; in the assay with UACC-257 melanoma, 59.1 µM. For the same compound, the TGI with A498 renal is over 100 µM; with BT-549 breast, over 100 µM; with EKVX NSCLC, over 100 µM; with HCT-15 colon it was over 100 µM; with MCF7 breast, 36.6 µM; in the assay with SK-MEL-5 melanoma, over 100 µM. In addition, the TGI with SK-OV-3 ovarian was over 100 µM; with SR leukemia, 47.4 µM; in the assay on SW-620 colon, over 100 µM; with UACC-257 melanoma it was over 100 µM.

For `Cc1ccnc(Nc2ccc([N+](=O)[O-])c(NCCN3CCOCC3)n2)c1`, the GI50 was 0.00325 µM in the assay with A498 renal; 0.0208 µM and 0.0191 µM with BT-549 breast; 0.0292 µM with EKVX NSCLC; 0.0061 µM with HCT-15 colon; 0.00334 µM in the assay with MCF7 breast; 0.00564 µM with SK-MEL-5 melanoma. Moreover, the results for the GI50 in the assay with SK-OV-3 ovarian, with SR leukemia and in the assay on SW-620 colon were 0.00804 µM, 0.00376 µM and 0.00497 µM, respectively. Also, the TGI with A498 renal is 0.22 µM; with BT-549 breast, 23.4 µM; in the assay with HCT-15 colon it was 31.5 µM; with MCF7 breast, 20.5 µM; in the assay with SK-MEL-5 melanoma, 0.206 µM and 0.315 µM; in the assay with SK-OV-3 ovarian, 64.7 µM. For the same compound, the values for the TGI with SR leukemia and in the assay on SW-620 colon were 63.5 µM and over 100 µM, respectively.
